Reference: the supplement of paper PMC10307832

How the values were obtained:
Assay in all cases: relative viability (nuclei count vs DMSO), 5 days (fraction); higher = more cells survive
Crenolanib + Linsitinib = compound: CC1(COc2ccc3c(c2)ncn3-c2ccc3cccc(N4CCC(N)CC4)c3n2)COC1 [Crenolanib] + C[C@]1(O)C[C@@H](c2nc(-c3ccc4ccc(-c5ccccc5)nc4c3)c3c(N)nccn32)C1 [Linsitinib] (partner 1 µM)
In short: (§1)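 A single step with final 0.05% Triton X-100, 1% formaldehyde and 1 ug/ml Hoechst fixed the cells and stained nuclei 5 days after treatment. Lung cancer cell lines in 1536-well plates had been treated by pin tool the day after seeding with one drug alone or a fixed anchor-drug dose plus five library-drug doses (not always all listed) in √10 steps, and nuclei were counted on 4× images. Relative viability is the ratio of nuclei in treated wells to nuclei in vehicle wells, taken as the median of duplicate plates.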

Tivantinib + Palbociclib = compound: O=C1NC(=O)[C@@H](c2cn3c4c(cccc24)CCC3)[C@@H]1c1c[nH]c2ccccc12 [Tivantinib] + CC(=O)c1c(C)c2cnc(Nc3ccc(N4CCNCC4)cn3)nc2n(C2CCCC2)c1=O [Palbociclib] (partner 0.5 µM)
In short: as §1

Tivantinib + Decitabine = compound: O=C1NC(=O)[C@@H](c2cn3c4c(cccc24)CCC3)[C@@H]1c1c[nH]c2ccccc12 [Tivantinib] + Nc1ncn([C@H]2C[C@H](O)[C@@H](CO)O2)c(=O)n1 [Decitabine] (partner 2 µM)
In short: as §1

Crenolanib + Crizotinib = compound: CC1(COc2ccc3c(c2)ncn3-c2ccc3cccc(N4CCC(N)CC4)c3n2)COC1 [Crenolanib] + C[C@@H](Oc1cc(-c2cnn(C3CCNCC3)c2)cnc1N)c1c(Cl)ccc(F)c1Cl [Crizotinib] (partner 1 µM)
In short: as §1

Row | Cell Line | relative viability (Crenolanib + Linsitinib; first compound 0.01 µM) | relative viability (Crenolanib + Linsitinib; first compound 0.03162 µM) | relative viability (Crenolanib + Linsitinib; first compound 0.1 µM) | relative viability (Crenolanib + Linsitinib; first compound 0.3162 µM) | relative viability (Crenolanib + Linsitinib; first compound 1 µM) | relative viability (Tivantinib + Palbociclib; first compound 0.01 µM) | relative viability (Tivantinib + Palbociclib; first compound 0.03162 µM) | relative viability (Tivantinib + Palbociclib; first compound 0.1 µM) | relative viability (Tivantinib + Palbociclib; first compound 0.3162 µM) | relative viability (Tivantinib + Decitabine; first compound 0.01 µM) | relative viability (Tivantinib + Decitabine; first compound 0.03162 µM) | relative viability (Tivantinib + Decitabine; first compound 0.1 µM) | relative viability (Tivantinib + Decitabine; first compound 0.3162 µM) | relative viability (Crenolanib + Crizotinib; first compound 0.01 µM) | relative viability (Crenolanib + Crizotinib; first compound 0.03162 µM) | relative viability (Crenolanib + Crizotinib; first compound 0.1 µM) | relative viability (Crenolanib + Crizotinib; first compound 0.3162 µM) | relative viability (Crenolanib + Crizotinib; first compound 1 µM)
1 | NCI-H1915 | 1.13 | 1.13 | 1.07 | 1.09 | 1.06 | 0.527 | 0.446 | 0.544 | 0.58 | 0.279 | 0.248 | 0.263 | 0.254 | 0.9 | 0.896 | 0.868 | 0.856 | 0.855
2 | NCI-H1944 | 1.18 | 1.15 | 1.21 | 1.32 | 1.17 | 0.366 | 0.327 | 0.324 | 0.297 | 0.43 | 0.451 | 0.44 | 0.401 | 1.05 | 1.19 | 1.03 | 1.21 | 1.07
3 | NCI-H1975 | 1.05 | 0.968 | 0.933 | 0.993 | 0.864 | 0.55 | 0.536 | 0.536 | 0.37 | 0.446 | 0.395 | 0.358 | 0.34 | 1 | 1.15 | 0.978 | 1.03 | 0.892
4 | NCI-H1993 | 0.771 | 0.757 | 0.724 | 0.649 | 0.705 | 0.701 | 0.621 | 0.583 | 0.567 | 0.59 | 0.503 | 0.506 | 0.539 | 0.875 | 0.871 | 0.875 | 0.806 | 0.9
5 | NCI-H2009 | 1.23 | 1.2 | 1.2 | 1.21 | 1.19 | 0.267 | 0.186 | 0.126 | 0.207 | 0.361 | 0.365 | 0.328 | 0.391 | 1.07 | 1.01 | 1.01 | 1.06 | 0.815
6 | NCI-H2023 | 0.669 | 0.678 | 0.626 | 0.801 | 0.621 | 0.447 | 0.376 | 0.334 | 0.327 | 0.24 | 0.218 | 0.212 | 0.221 | 0.708 | 0.706 | 0.639 | 0.814 | 0.622
7 | NCI-H2085 | 0.998 | 0.896 | 0.913 | 0.932 | 0.873 | 0.472 | 0.483 | 0.463 | 0.468 | 0.534 | 0.556 | 0.554 | 0.551 | 0.942 | 0.993 | 0.902 | 0.804 | 0.845
8 | NCI-H2087 | 1.02 | 1.13 | 0.917 | 1.23 | 1.02 | 0.209 | 0.233 | 0.276 | 0.228 | 0.326 | 0.311 | 0.21 | 0.196 | 0.693 | 0.919 | 0.809 | 0.992 | 0.965
9 | NCI-H2126 | 0.693 | 0.717 | 0.745 | 0.759 | 0.788 | 0.366 | 0.323 | 0.342 | 0.397 | 0.57 | 0.549 | 0.587 | 0.547 | 1.05 | 1.04 | 0.978 | 1.09 | 1.02
10 | NCI-H2347 | 0.972 | 1.02 | 0.736 | 1.04 | 0.873 | 0.399 | 0.472 | 0.422 | 0.381 | 0.699 | 0.592 | 0.623 | 0.629 | 0.934 | 0.624 | 0.506 | 0.59 | 0.72
11 | NCI-H2405 | 1.15 | 0.923 | 0.661 | 0.794 | 0.859 | 0.565 | 0.584 | 0.486 | 0.536 | 0.754 | 0.789 | 0.73 | 0.79 | 0.899 | 0.94 | 0.623 | 0.809 | 0.837
12 | NCI-H3122 | 1.03 | 1 | 0.994 | 1.07 | 1.05 | 0.208 | 0.216 | 0.164 | 0.186 | 0.434 | 0.484 | 0.398 | 0.434 | 0.27 | 0.288 | 0.298 | 0.267 | 0.321
13 | PC-3 [JPC-3] | 0.965 | 0.956 | 0.899 | 0.988 | 0.887 | 0.482 | 0.6 | 0.508 | 0.491 | 0.766 | 0.798 | 0.839 | 0.6 | 0.975 | 0.958 | 0.907 | 1.05 | 0.991
14 | PC-14 | 1.07 | 0.93 | 1.03 | 1.05 | 0.93 | 0.594 | 0.578 | 0.499 | 0.536 | 0.238 | 0.234 | 0.223 | 0.142 | 0.902 | 0.93 | 0.825 | 0.966 | 1.03
15 | RERF-LC-KJ | 0.851 | 0.937 | 0.905 | 0.919 | 0.944 | 0.644 | 1.1 | 1.01 | 0.647 | 0.802 | 0.632 | 0.63 | 0.622 | 0.796 | 0.848 | 0.825 | 0.852 | 0.886
16 | SK-LU-1 | 1.09 | 0.649 | 0.869 | 1.16 | 0.809 | 0.42 | 0.394 | 0.423 | 0.34 | 0.711 | 0.679 | 0.593 | 0.555 | 1 | 0.968 | 0.644 | 0.876 | 0.85
17 | SK-MES-1 | 1.09 | 1.13 | 0.945 | 1.13 | 1.04 | 0.336 | 0.345 | 0.296 | 0.361 | 0.299 | 0.351 |  | 0.337 | 1 | 1 | 0.857 | 1.02 | 0.973
18 | SW 1573 | 0.873 | 0.841 | 0.704 | 0.96 | 0.81 | 0.464 | 0.384 | 0.32 | 0.343 | 0.688 | 0.462 | 0.446 | 0.494 | 0.748 | 0.886 | 0.795 | 0.834 | 0.884
